Source: patent US7687079B2, “Methods of treating ileus” (priority 2002, dated 2010)

What was measured:
circular muscle strip = experiment: Example 3 circular muscle strip contractions in response to bethanechol after IM; format: in vivo, mouse; details: IM+CO mice (250 and 500 ppm), bethanechol 100 μM, 24 hours
Experimental: Ileus was induced in mice by gentle manipulation of the small intestine. An incision was made to expose the abdominal cavity of the mouse, and bowel manipulation was performed by gentle poking and prodding of the small intestine (see, e.g., Schwarz et al., Gastroenterology 121(6):1354-1357 (2001)). The incision was subsequently closed, and analyses were performed 24 hours later. Mice were exposed to CO by inhalation (250 and 500 ppm) for 1 hour immediately prior to intestinal manipulation and during the entire 24-hour recovery period. Intestinal contractility was assessed in vitro by measuring circular muscle strip contractions in response to bethanechol (0.3-300 μM) and in vivo by determining intestinal transit from the distribution of orally-fed, fluorescein-labeled dextran and calculating geometric center as described in Example 1 above. HO-1 and IL-10 mRNA expression were determined by SYBR green real time RT-PCR from extracts of muscularis extemae, as described in Example 1 above. Release of nitric oxide (NO), a potent inhibitor of smooth muscle contractility, was estimated by measuring serum total nitrite, also described in Example 1 above.

COX-2 mRNA [1] = experiment: COX-2 mRNA expression in muscularis of transplanted grafts (real time RT-PCR); format: in vivo, rat; details: CO-treated SITx rats, 4 hours after reperfusion
Experimental: (§1) The effects of inhalation of CO on transplant-induced pro-inflammatory and anti-inflammatory gene expression was assessed in muscularis extracts by RT-PCR. Muscularis extemae was collected from normal intestine and transplanted grafts 4 hours postoperatively and snap frozen in liquid nitrogen. This time point falls within the range of maximum inflammatory mediator expression that occurs between 3 and 6 hours following abdominal incision. Total RNA extraction was performed using the guanidium-thiocyanate phenol-chloroform extraction method as described previously (Eskandari et al., Am. J. Clin. Pathol. 75(3):367-370 (1997)). RNA pellets were resuspended in RNA-secure resuspension solution (Ambion Inc., Austin, Tex.), followed by removal of potentially contaminating DNA by treatment with DNase I (DNA-Free Kit, Ambion Inc., Austin, Tex.). Equal aliquots (5 μg) of total RNA from each sample were quantified by spectrophotometry (wavelength […]) and aliquoted at a concentration of 40 ng/μl. Peak mRNA expression was quantified in duplicate by SYBR Green two-step, real-time RT-PCR. […] Real-time PCR data were plotted as the ΔRn, fluorescence signal versus the cycle number. […] Quantification of mRNA expression was normalized to GAPDH and calculated relative to control using the comparative CT method (Schmittgen et al., J. Biochem. Biophys. Methods 46(1-2):69-8 (2000)). […]

TNFα mRNA = TNFα mRNA expression in muscularis externae of intestinal grafts (real time RT-PCR); format: in vivo, rat; details: SITx recipients treated with CO, 4 hours after reperfusion
Experimental: as §1

COX-2 mRNA [2] = experiment: COX-2 mRNA in muscularis after IM (real time RT-PCR); format: in vivo, mouse
Experimental: Pro- and anti-inflammatory gene expression was determined by real time RT-PCR. The small intestinal muscularis externa was collected at 4 time points (3, 6, 12, and 24 hr) postoperatively and snap frozen in liquid nitrogen. Total RNA extraction was performed using the guanidium-thiocyanate phenol-chloroform extraction method as described in Eskandari et al. (Id.) RNA pellets were resuspended in RNA-secure resuspension solution (Ambion Inc., Austin, Tex.), followed by removal of potential contaminating DNA by treatment with DNase I (DNA-Free Kit, Ambion Inc., Austin, Tex.). Equal aliquots (5 μg) of total RNA from each sample were quantified by spectrophotometry (wavelength […]). Peak mRNA expression was quantified in duplicate by SYBR Green two-step, real-time RT-PCR. β-actin was used as the endogenous reference. Aliquoted RNA (40 ng) was subjected to first-strand complementary DNA (cDNA) synthesis using random hexamers (PE applied Biosystems, Foster City, Calif.) and Super Script II (Life Technologies, Rockville, Md.). Primers were taken from the literature or designed according to published sequences (Table 3). PCR reaction mixture was prepared using SYBR Green PCR Core Reagents (PE Applied Biosystems). Each sample was estimated in duplicate using the conditions recommended by the manufacturer. Real-time PCR data were plotted as the ΔRn fluorescence signal versus the cycle number. An arbitrary threshold was set to the midlinear portion of the log ΔRn cycle plot. The threshold cycle (CT) is defined as the cycle number at which the ΔRn, crosses this threshold. Quantification of mRNA expression was normalized to β-actin and calculated relative to control using the comparative CT method.
To exclude PCR amplification of contaminating genomic DNA, RT-negative controls (samples containing RNA which was not reverse transcribed) were included in each PCR reaction. Melting curve analyses were performed for each reaction to ensure amplification of specific product. […] PCR amplification efficiency of each target cDNA was measured by determining the colinearity of serial dilutions. […]

SMILES: [C-]#[O+] [CO, carbon monoxide]
- peak contractile force (circular muscle strip): 1.9±0.5 g/s/mm^2
- reduction of mean relative COX-2 mRNA expression (COX-2 mRNA [1]): approximately 50%
- TNFα expression (TNFα mRNA): unchanged
- IM-induced COX-2 gene expression (COX-2 mRNA [2]; IM + CO, 3 or 6 hr time points): no effect
- COX-2 mRNA expression (COX-2 mRNA [2]; control animals, CO inhalation, 3 hr post-treatment): significantly increased
- induction of COX-2 message (COX-2 mRNA [2]; unoperated control mice, CO inhalation alone, 3 hr): 2.5 fold
